# ChEMBL document CHEMBL4673363, “Highly potent, broadly active antifungal agents for the treatment of invasive fungal infections” (Bioorg Med Chem Lett, 2021)
# How the values were obtained:
# [1] = Cytotoxicity against human HepG2 cells assessed as reduction in metabolic activity measured after 24 hrs; format: ADME, cell-based
# [2] = Antifungal activity against Mucor ramosissimus ATCC 90286; format: functional
# Mucor circinelloides = experiment: Antifungal activity against Mucor circinelloides ATCC 26579; format: functional
# Fusarium solani = experiment: Antifungal activity against Fusarium solani ATCC 58877; format: functional
# [3] = Metabolic stability in mouse liver microsomes assessed as half life measured up to 60 mins in presence of NADPH by LC-MS/MS analysis; format: ADME, Microsome
# Candida albicans = experiment: Antifungal activity against Candida albicans clinical isolate; format: functional
# [4] = Antifungal activity against Fusarium falciforme ATCC 3636; format: functional
# CYP2C19 = CYP2C19 (Homo sapiens, UniProt P33261); experiment: Inhibition of CYP2C19 in human liver microsomes at 10 uM using S-mephenytoin as substrate measured for 10 to 30 mins in presence of NADPH by LC-MS/MS analysis relative to control; format: ADME; details: probe S-mephenytoin, time 10-30 min
# hERG (KCNH2) = hERG (KCNH2) (Homo sapiens, UniProt Q12809); experiment: Inhibition of human ERG at 10 uM by Qpatch method relative to control
# [5] = Aqueous solubility of compound at pH 7.4; format: physicochemical
# [6] = Protein binding in mouse plasma at 1 uM measured after 4 hrs by LC-MS/MS based rapid equilibrium dialysis method; format: ADME, cell-free; details: read-out: PPB (converted)
# CYP1A2 = molecular target: T1, CYP1A2 (Homo sapiens, UniProt P05177); experiment: Inhibition of CYP1A2 in human liver microsomes at 10 uM using phenacetin as substrate measured for 10 to 30 mins in presence of NADPH by LC-MS/MS analysis relative to control; format: ADME; details: probe phenacetin, time 10-30 min
# T1 sequence (P05177 whole entry): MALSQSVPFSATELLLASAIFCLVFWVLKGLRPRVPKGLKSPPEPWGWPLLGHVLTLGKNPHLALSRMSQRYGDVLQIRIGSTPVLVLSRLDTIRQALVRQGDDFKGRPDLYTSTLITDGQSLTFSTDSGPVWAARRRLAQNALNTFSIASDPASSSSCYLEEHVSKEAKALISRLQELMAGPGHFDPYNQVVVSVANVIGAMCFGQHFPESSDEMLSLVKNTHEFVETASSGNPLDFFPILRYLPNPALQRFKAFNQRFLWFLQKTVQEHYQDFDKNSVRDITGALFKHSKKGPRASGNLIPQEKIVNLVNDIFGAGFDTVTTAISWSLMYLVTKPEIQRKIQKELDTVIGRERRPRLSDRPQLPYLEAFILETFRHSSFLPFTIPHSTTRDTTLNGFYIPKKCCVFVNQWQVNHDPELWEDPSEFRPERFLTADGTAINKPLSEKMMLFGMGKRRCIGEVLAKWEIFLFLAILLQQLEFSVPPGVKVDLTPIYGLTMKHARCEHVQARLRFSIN
# Aspergillus flavus = experiment: Antifungal activity against Aspergillus flavus ATCC 3631; format: functional
# Aspergillus fumigatus = experiment: Antifungal activity against Aspergillus fumigatus ATCC 3626; format: functional
# [7] = Selectivity index, ratio of CC50 for human HepG2 cells to MIC for candida albicans; format: toxicity; details: read-out: Selectivity Index
# [8] = Cytotoxicity against mouse 3T3 cells assessed as reduction in metabolic activity measured after 24 hrs; format: ADME, cell-based
# [9] = Selectivity index, ratio of CC50 for mouse 3T3 cells to MIC for candida albicans; format: toxicity; details: read-out: Selectivity Index
# CYP3A = experiment: Inhibition of CYP3A in human liver microsomes at 10 uM using testosterone as substrate measured for 10 to 30 mins in presence of NADPH by LC-MS/MS analysis relative to control; format: ADME; details: probe testosterone, time 10-30 min
# [10] = Solubility in 10% 2-hydroxypropyl-B-cyclodextrin; format: physicochemical
# Aspergillus = experiment: Antifungal activity against Aspergillus assessed as inhibition of fungal growth by broth dilution assay; format: functional, organism-based
# Rhizopus = experiment: Antifungal activity against Rhizopus assessed as inhibition of fungal growth by broth dilution assay; format: functional, organism-based
# Candida [11] = experiment: Antifungal activity against Candida assessed as inhibition of fungal growth by broth dilution assay; format: functional, organism-based
# Candida [12] = experiment: Antifungal activity against Candida after 48 hrs by CLSI-based broth microdilution method; format: functional
# Trichophyton = experiment: Antifungal activity against Trichophyton after 48 hrs by CLSI-based broth microdilution method; format: functional
# Chain of hERG (KCNH2) (Q12809 whole entry): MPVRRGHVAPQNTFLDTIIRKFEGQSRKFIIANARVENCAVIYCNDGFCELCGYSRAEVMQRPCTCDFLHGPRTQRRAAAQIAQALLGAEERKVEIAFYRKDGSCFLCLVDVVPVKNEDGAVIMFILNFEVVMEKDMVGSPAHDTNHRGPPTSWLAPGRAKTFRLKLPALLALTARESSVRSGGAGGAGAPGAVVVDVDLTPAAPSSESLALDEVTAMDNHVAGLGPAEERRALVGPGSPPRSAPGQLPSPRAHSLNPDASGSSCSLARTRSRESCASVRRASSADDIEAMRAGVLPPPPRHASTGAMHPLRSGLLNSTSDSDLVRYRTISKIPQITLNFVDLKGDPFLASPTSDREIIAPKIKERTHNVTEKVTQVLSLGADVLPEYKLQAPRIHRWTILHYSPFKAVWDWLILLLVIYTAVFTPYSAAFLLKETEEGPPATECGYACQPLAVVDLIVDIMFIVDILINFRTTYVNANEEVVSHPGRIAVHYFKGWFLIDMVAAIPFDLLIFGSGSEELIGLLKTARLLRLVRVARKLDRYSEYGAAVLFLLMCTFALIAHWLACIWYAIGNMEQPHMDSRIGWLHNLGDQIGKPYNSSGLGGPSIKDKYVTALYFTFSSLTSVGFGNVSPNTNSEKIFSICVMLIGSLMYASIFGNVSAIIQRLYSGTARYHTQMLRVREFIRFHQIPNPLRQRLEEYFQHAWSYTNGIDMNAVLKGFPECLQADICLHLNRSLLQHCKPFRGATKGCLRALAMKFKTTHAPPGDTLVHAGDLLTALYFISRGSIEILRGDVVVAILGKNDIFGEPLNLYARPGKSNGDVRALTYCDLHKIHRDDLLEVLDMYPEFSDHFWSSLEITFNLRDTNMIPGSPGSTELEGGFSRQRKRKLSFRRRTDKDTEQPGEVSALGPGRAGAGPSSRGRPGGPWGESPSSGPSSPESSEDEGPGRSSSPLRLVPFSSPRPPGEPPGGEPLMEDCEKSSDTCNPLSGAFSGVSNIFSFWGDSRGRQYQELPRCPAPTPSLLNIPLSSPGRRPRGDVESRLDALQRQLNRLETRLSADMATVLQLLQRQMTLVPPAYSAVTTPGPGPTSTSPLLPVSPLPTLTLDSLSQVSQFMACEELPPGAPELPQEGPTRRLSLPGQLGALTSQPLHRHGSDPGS
# Chain of CYP2C19 (P33261 whole entry): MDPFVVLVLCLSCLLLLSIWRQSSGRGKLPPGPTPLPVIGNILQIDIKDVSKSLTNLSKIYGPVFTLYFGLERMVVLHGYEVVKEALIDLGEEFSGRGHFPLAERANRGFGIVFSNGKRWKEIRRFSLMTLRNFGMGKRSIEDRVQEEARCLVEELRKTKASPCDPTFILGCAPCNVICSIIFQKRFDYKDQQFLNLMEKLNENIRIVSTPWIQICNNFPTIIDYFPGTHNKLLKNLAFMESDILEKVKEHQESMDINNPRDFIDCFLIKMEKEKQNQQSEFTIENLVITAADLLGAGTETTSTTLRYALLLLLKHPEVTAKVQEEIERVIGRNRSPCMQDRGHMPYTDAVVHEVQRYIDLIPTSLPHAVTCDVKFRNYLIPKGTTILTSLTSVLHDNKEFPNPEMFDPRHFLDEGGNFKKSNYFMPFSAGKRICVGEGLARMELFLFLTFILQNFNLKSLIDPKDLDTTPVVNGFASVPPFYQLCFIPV
MIC [2] [µg/mL],MIC (Mucor circinelloides) [µg/mL],MIC (Fusarium solani) [µg/mL],MIC [4] [µg/mL],MIC (Aspergillus flavus) [µg/mL],MIC (Aspergillus fumigatus) [µg/mL],SMILES,also measured
0.78,0.2,< 0.1,< 0.1,< 0.1,< 0.1,CC(C)n1c(-c2ccc(C3=CCN(C(=N)N)CC3)cc2)nnc1-c1ccc(C2=CCN(C(=N)N)CC2)cc1,"CC50 at 24 h [1]: 751 µM; half-life [3]: > 1 h; MIC50 (Candida albicans): 0.1 µg/mL; inhibition at 10 µM (CYP2C19): 10.3%; inhibition at 10 µM (hERG (KCNH2)): 21.6%; solubility [5]: 27 µg/mL; fraction unbound at 4 h, 1 µM [6]: 0.027; inhibition at 10 µM (CYP1A2): 0%; selectivity ratio [7]: > 1000; CC50 at 24 h [8]: 297 µM; selectivity ratio [9]: > 1000; inhibition at 10 µM (CYP3A): 0%; solubility [10]: ≤ 5000 µg/mL"
> 100,> 100,0.78,0.78,1.56,1.56,Cn1c(-c2ccc(C3CCN(C(=N)N)CC3)cc2)nnc1-c1ccc(C2CCN(C(=N)N)CC2)cc1,
,,,,,,NC(N)=N/N=C/c1ccc(OCc2ccc(Cl)c(Cl)c2)cc1,IC50 (Aspergillus): > 12 µM; IC50 (Rhizopus): > 12 µM; IC50 (Candida [11]): > 12 µM
3.13,1.56,0.05,0.1,1.56,0.39,N=C(N)N1CC=C(c2ccc(-c3nnc(-c4ccc(C5=CCN(C(=N)N)CC5)cc4)n3Cc3ccccc3)cc2)CC1,
> 100,> 100,> 100,> 100,> 100,> 100,Cn1c(-c2ccc(CNC(=N)N)cc2)cnc1-c1ccc(CNC(=N)N)cc1,
1.56,0.39,0.39,0.2,0.78,0.39,N=C(N)N1CC=C(c2ccc(-c3nnc(-c4ccc(C5=CCN(C(=N)N)CC5)cc4)n3C3CCCCC3)cc2)CC1,
3.13,0.78,0.2,0.2,0.39,0.2,Cn1c(-c2ccc(C3=CCN(C(=N)N)CC3)cc2)nnc1-c1ccc(C2=CCN(C(=N)N)CC2)c(C(F)(F)F)c1,
6.25,3.13,0.2,0.2,0.39,0.2,Cc1cc(C2=CCN(C(=N)N)CC2)ccc1-c1nnc(-c2ccc(C3=CCN(C(=N)N)CC3)cc2)n1C,
25,25,1.56,0.39,6.25,> 25,Cc1cc(-c2nnc(-c3ccc(C4=CCN(C(=N)N)CC4)cc3)o2)ccc1C1=CCN(C(=N)N)CC1,
100,100,6.25,0.39,3.13,3.13,N=C(N)N1CC=C(c2ccc(-c3nnc(-c4ccc(C5=CCN(C(=N)N)CC5)cc4)o3)cc2)CC1,
6.25,0.78,3.13,< 0.1,0.39,0.2,Cn1c(-c2ccc(C3=CCN(C(=N)N)CC3)cc2)cnc1-c1ccc(C2=CCN(C(=N)N)CC2)cc1,
0.78,0.2,< 0.012,< 0.012,< 0.012,< 0.012,CCn1c(-c2ccc(C3=CCN(C(=N)N)CC3)cc2)nnc1-c1ccc(C2=CCN(C(=N)N)CC2)cc1,
6.25,1.56,0.2,0.78,0.39,0.78,Cc1cc(C2=CCN(C(=N)N)CC2)ccc1-c1nnc(-c2ccc(C3=CCN(C(=N)N)CC3)cc2C)n1C,
6.25,0.78,0.2,0.05,0.39,0.2,Cn1c(-c2ccc(C3=CCN(C(=N)N)C3)cc2)nnc1-c1ccc(C2=CCN(C(=N)N)C2)cc1,
25,12.5,0.78,0.2,0.31,0.78,Cc1cc(C2=CCN(C(=N)N)CC2)ccc1-c1nnc(-c2ccc(C3=CCN(C(=N)N)CC3)cc2)o1,
> 100,> 100,1.56,0.39,0.78,0.39,Cn1c(-c2ccc(N3CCN(C(=N)N)CC3)cc2)nnc1-c1ccc(N2CCN(C(=N)N)CC2)cc1,
0.39,0.2,0.024,0.024,0.1,0.1,Cn1c(-c2ccc(C3=CCN(C(=N)N)CC3)cc2)nnc1-c1ccc(C2=CCN(C(=N)N)CC2)cc1,
1.56,0.39,0.05,0.05,0.2,0.1,COCCn1c(-c2ccc(C3=CCN(C(=N)N)CC3)cc2)nnc1-c1ccc(C2=CCN(C(=N)N)CC2)cc1,
50,6.25,0.78,0.78,1.56,0.78,Cc1cc(-c2nnc(-c3ccc(C4=CCN(C(=N)N)CC4)c(C)c3)n2C)ccc1C1=CCN(C(=N)N)CC1,
,,,,,,Cc1ccc(Oc2ccccc2-c2csc(N=C3NCCCN3)n2)c(C)c1 [ABAFUNGIN],MIC (Aspergillus; time 48 hrs): 0.5 µg/mL; MIC (Candida [11]): 0.5 µg/mL
3.13,1.56,3.13,3.13,3.13,3.13,C[C@@H]1[C@H](O)[C@@H](C)/C=C/C=C/C=C/C=C/C=C/C=C/C=C/[C@H](O[C@@H]2O[C@H](C)[C@@H](O)[C@H](N)[C@@H]2O)C[C@@H]2O[C@](O)(C[C@@H](O)C[C@@H](O)[C@H](O)CC[C@@H](O)C[C@@H](O)CC(=O)O[C@H]1C)C[C@H](O)[C@H]2C(=O)O [AMPHOTERICIN B],
,,,,,,CC(C)(C)c1cc(C(C)(C)C)c2[nH]c(C(C)(C)C)c(C[C@H](NC(=O)[C@@H](N)CCCNC(=N)N)C(=O)N[C@@H](CCCNC(=N)N)C(=O)NCCc3ccccc3)c2c1 [LTX-109],MIC (Candida [12]): 4 µg/mL; MIC (Trichophyton): 8 µg/mL

SMILES,MIC [2] [µg/mL],MIC (Mucor circinelloides) [µg/mL],MIC (Fusarium solani) [µg/mL],MIC [4] [µg/mL],MIC (Aspergillus flavus) [µg/mL],MIC (Aspergillus fumigatus) [µg/mL],also measured
CC[C@@H]([C@H](C)O)n1ncn(-c2ccc(N3CCN(c4ccc(OC[C@@H]5CO[C@@](Cn6cncn6)(c6ccc(F)cc6F)C5)cc4)CC3)cc2)c1=O [POSACONAZOLE],0.78,1.56,1.56,0.78,0.78,0.39,
